This is an account of results in patent publication US11351192B2, “De-colonization drug, preparation method therefor, and application thereof” (BEIJING HYGIENE & HEALTHCARE INNOVATION TECHNOLOGY CO., LTD., priority 2017, dated 2022).

This data set relates to multi-drug resistant bacteria. In kind it is in vivo, hospitalized patients. The text has this:
Using the case-control experiment, all newly-increased patients with multi-drug resistant bacteria in the cooperative hospital are selected for a period of time. The hospitalized patients are divided into the control group and the experimental group, and the control group is selected to be applied intranasally with mupirocin for 5 consecutive days and twice daily.
During the experiment, it can be found by electron microscopy at 200-fold whether mucosa has interstitial edema, inflammatory cell infiltration or surface epithelial cell shedding; it can show by electron microscopy at 6000-fold whether the mitochondria in the glandular epithelial cells are swollen or edema, it can show by electron microscopy at 10000-fold whether the morphology and structure of the ciliated epithelial cells is normal. FIGS. 1 and 2 are the electron microscopic images of the nasal mucosa by electron microscopy at 200-fold.

The mark [1] stands for this setting: hospitalized patients, decolonization drug twice a day 3 days, mupirocin twice daily 5 days.

Consider `C/C(=C\C(=O)OCCCCCCCCC(=O)O)C[C@@H]1OC[C@H](C[C@@H]2O[C@H]2[C@@H](C)[C@H](C)O)[C@@H](O)[C@H]1O` [mupirocin], for which, under setting [1], the “cases of methicillin-resistant Staphylococcus aureus (MRSA)” value stood at 35 cases, the “cases of multi-drug resistant bacteria” value was found to be 120 cases and the “ratio of MRSA cases among multi-drug resistant bacteria cases” value is reported as 29.16%. The “adverse reactions (edema and hyperemia symptoms of nasal mucosa)” value (human, in vivo, 5 days) is recorded as 2.
